# Results taken from US7485434B2, “Method for screening compounds for those that modulate transducers of regulated CREB activity” (The Salk Institute for Biological Studies, priority 2005, dated 2009).
# Experiments:
# [1] = test system: β cell; settings: organ transplant recipients receiving chronic immunosuppressive therapy; cited from earlier work
# [2] = test system: gluconeogenic genes (PEPCK, PGC-1α, G6Pase); assay: Q-PCR of gluconeogenic gene expression in primary rat hepatocytes; type: cell-based; settings: primary rat hepatocytes exposed to glucagon; CHX pre-treatment
# Protocol: Specifically, FIG. 17A illustrates the effect of TORC2 on induction of gluconeogenic genes (PEPCK, PGC-1α, G6Pase) by FSK (10 μM, 2 hr) in cultured primary rat hepatocytes infected with TORC2 or control GFP adenovinus as indicated.
# FIGS. 18A-18H illustrate that the induction of the AMP kinase family member SIK1 by CREB during fasting attenuates the gluconeogenic program. Specifically, FIG. 18A illustrates the time course of PEPCK gene expression in primary rat hepatocytes following exposure to FSK. mRNA levels were determined by Q-PCR analysis.
# FIG. 18C illustrates the effect of CHX pretreatment on induction of gluconeogenic genes (PEPCK, PGC-1α, G6Pase) by glucagon in primary rat hepatocytes. Relative mRNA levels are shown.
# FIG. 19B summarizes the effect of SIK1 RNAi on gluconeogenic gene expression in primary rat hepatocytes, presenting Q-PCR analysis showing the relative induction of PEPCK, PGC-1α, and G6Pase mRNAs by glucagon in cells infected with control (US) or SIK1 RNAi expressing adenoviruses.
# FIG. 20D summarizes the effect of AlCAR on expression of gluconeogenic genes (PEPCK, PGC-1α) in primary rat hepatocytes. Cells infected with mutant Ser171Ala TORC2 (171) adenovinus indicated. Treatment with AICAR and FSK is shown.
# Rat primary hepatocytes were prepared from 200-300g of Sprague-Dawley rats by collagenase perfusion method as described previously (see Koo et al., 2004). […]
# [3] = test system: TORC2; assay: TORC2 phosphorylation in primary rat hepatocytes (Western blot); type: cell-based; settings: primary rat hepatocytes
# Description: FIG. 18B illustrates the effect of CHX on levels of phospho (Ser171) TORC2 in primary rat hepatocytes treated with glucagon over a variety of time points, shown in hours. Western blot assay indicates the levels of TORC2, phospho (Ser171) TORC2 and CREB.
# Specifically, FIG. 19A, top, presents a Western blot showing the effect of US and SIK1 RNAi adenoviruses on the levels of SIK1 protein in rat hepatocytes. FIG. 19A, bottom, presents a Western blot assay with nondiscriminating TORC2 antiserum, showing the effect of SIK1 RNAi adenovirus on TORC2 dephosphorylation (compare P-TORC2 and TORC2 bands) following exposure of primary rat hepatocytes to glucagon (Gluc). The arrow identifies phosphorylated TORC2.
# Cells were exposed to AICAR and FSK for 30 minutes. Lower mobility bands (arrow) indicate phosphorylated TORC2 polypeptides.
# Rat primary hepatocytes were prepared from 200-300g of Sprague-Dawley rats by collagenase perfusion method as described previously (see Koo et al., 2004). 1×10^6 cells were plated in 6 well plates with medium 199 (Invitrogen, Carlsbad, Calif.) supplemented by 10% FBS, 10 units/ml penicillin, 10 μg/ml streptomycin, and 10 nM dexamethasone for 3-6 hours. After attachment, cells were infected with adenoviruses for 16 hours. Subsequently, cells were maintained in medium 199 without FBS and dexamethasone for 24 hours (for cDNA expression adenoviruses) or 48 hours (for RNAi adenoviruses) and […] forskolin or 100 nM glucagon for 2 hours unless noted otherwise. For experiments with cycloheximide, 10 μg/ml cycloheximide was added 30 minutes prior to the addition of 100 nM glucagon.
# Like other signaling pathways, cAMP stimulates gluconeogenic gene expression with burst-attenuation kinetics (see Sasaki et al., 1984). Following exposure of primary hepatocytes to Forskolin, PEPCK mRNA levels became maximal after 2 hours, returning to near baseline after 4 hours (see FIG. 18A). […] Consistent with this, CHX pre-treatment potentiated gluconeogenic gene expression in primary rat hepatocytes exposed to glucagon 2-3 fold (see FIG. 18C). […]
# [4] = test system: CREB target gene NR4A2; assay: Quantitative PCR of CREB target gene NR4A2 in MIN6 insulinoma cells; type: cell-based
# Protocol: FIG. 1B presents quantitative PCR (Q-PCR) analysis of the CREB target gene NR4A2 in MIN6 insulinoma cells exposed to glucose (20 mM) and/or exendin-4 (10 nM).
# Cells were treated with cAMP agonist (Forskolin, 10 μM) and KCl (45 mM) or vehicle control. For glucose experiments, MIN6 cells were starved overnight in DME containing 2.75 mM glucose plus 16 mM mannitol and 10% FBS. The next day the medium was changed for the indicated times+inhibitor. Total RNA from treated MIN6 or HIT cells was extracted using an RNeasy mini-kit (Qiagen, Valencia, Calif.). 500 ng-1 μg of total RNA was used for generating cDNA with Superscript II enzyme (Invitrogen, Carlsbad, Calif.). cDNAs were analyzed by quantitative PCR using SYBR green PCR kit and an ABIPRISM 7700 Sequence detector (Perkin Elmer, Foster City, Calif.). All PCR data for CREB target NR4A2 (Conkright et al., 2003b) was normalized to ribosomal L32 or 36B4 expression in the corresponding sample.
# Hamster insulinoma (HIT) cells were employed to test the relative effects of cAMP and calcium signals on CREB activity. Opening of voltage-sensitive L-type calcium channels in response to KC1 depolarization induced the CREB-dependent EVX-1 promoter (Conknight et al., 2003b) 5-fold in HIT cells, whereas addition of cAMP agonist stimulated the reporter 10-fold (see FIG. 1A). […]
# [5] = test system: TORC2; assay: Immunofluorescence of TORC localization in ATYB1 fibroblasts; type: cell-based, human; settings: ATYB1 cells
# Protocol: Specifically, FIG. 3A presents fluorescence microscopic analysis of Flag-tagged TORC2 in human ATYBI fibroblasts treated with forskolin (10 μM) or control vehicle for 30 minutes as indicated.
# FIG. 3B illustrates the effect of exportin inhibitor leptomycin B (LMB) on nuclear targeting of TORC2 in transfected ATYB1 fibroblasts. DAPI staining is shown alongside to indicate nuclei.
# FIG. 7C, top panels, illustrate the effect of SIK2 (or related family members) on TORC2 subcellular localization. Immunofluorescence microscopy is presented for ATYB1 cells transfected with Flagtagged TORC2 plus wild-type or PKA phosphorylation defective SIK2 (Ser587Ala) as indicated. DAP1 staining is shown below each panel. FIG. 7C, bottom panels, illustrate the effect of Ser171 Ala mutagenesis on cellular localization of TORC2. Treatment with forskolin is indicated.
# FIG. 13, top panels, illustrates the cellular localization of endogenous TORC proteins in ATYBI cells using TORC specific antiserum. The effect of forskolin (10 μM, 30 minutes) and leptomycin B (LMB, 10 ng/ml, 2 hr) treatment is shown. DAP1 staining is shown below to visualize the nuclei. FIG. 13, bottom panel, illustrates the effect of LMB treatment on TORC1 localization in ATYBI cells transfected with flag-tagged TORC1 expression vector. TORC1 localization was followed using anti-flag antiserum. DAP1 staining is shown alongside. […]
# [6] = test system: TORC2; assay: TORC2 localization, Ser171 phosphorylation and promoter recruitment in liver after IP injection; type: in vivo; settings: mice
# [7] = test system: CREB; assay: CREB Ser133 phosphorylation in liver after IP injection (histochemical and Western blot); type: in vivo; settings: mice; intraperitoneal administration
compound,measurement,setting,value
C=CC[C@@H]1/C=C(\C)C[C@H](C)C[C@H](OC)[C@H]2O[C@@](O)(C(=O)C(=O)N3CCCC[C@H]3C(=O)O[C@H](/C(C)=C/[C@@H]3CC[C@@H](O)[C@H](OC)C3)[C@H](C)[C@@H](O)CC1=O)[C@H](C)C[C@@H]2OC [FK506],β cell failure and diabetes,[1],cause β cell failure and diabetes with high frequency
C[C@@H]1C[C@@H]([C@H](O)CC2CC(=O)NC(=O)C2)C(=O)[C@@H](C)C1 [cycloheximide],potentiation of gluconeogenic gene expression,[2],2-3 fold
same,effect on TORC2 Ser171 phosphorylation by glucagon at 3 hours,[3]; CHX pre-treatment 10 μg/ml,blocked phosphorylation of TORC2 at Ser171
O=C[C@H](O)[C@@H](O)[C@H](O)[C@H](O)CO [glucose],induction of NR4A2 expression,[4]; high glucose (20 mM),5 fold
CCC(=C/[C@H](C)C/C=C/C(C)=C/[C@@H](C)C(=O)[C@@H](C)[C@H](O)[C@@H](C)C/C(C)=C/C(=O)O)/C=C/[C@@H]1OC(=O)C=C[C@@H]1C [leptomycin B],time to nuclear accumulation of TORC,[5],30 to 60 min
same,nuclear accumulation of TORC,[5]; forskolin 10 μM or LMB 10 ng/ml,strongly enhanced nuclear accumulation
Exendin-4,NR4A2 mRNA levels enhanced,[4]; co-stimulation glucose (20 mM) plus exendin-4 (10 nM),35 fold
glucagon,recruitment of TORC2 to gluconeogenic genes (ChIP of liver tissue),[6]; 10 minutes after IP administration,promoted recruitment of TORC2 to gluconeogenic genes
same,TORC2 phosphorylation at Ser171 in liver,[6]; IP administration,dephosphorylated
same,nuclear translocation of hepatic TORC2,[6]; IP administration,induced translocation of TORC2 to liver nuclei
same,time to translocation of TORC2 to liver nuclei,[6]; IP administration,≤ 10 min
same,CREB Ser133 phosphorylation in liver,[7],promote CREB Ser133 phosphorylation in liver
same,time to CREB Ser133 phosphorylation in liver,[7],≤ 10 min
same,TORC2 phosphorylation at Ser171,[3]; 3 hours after stimulation,strongly induced
